This assay concerns the target Ubiquitin carboxyl-terminal hydrolase 28 (Homo sapiens) (UniProt Q96RU2). Kind of assay: Concentration-response biochemical assay confirming initial hits as inhibitors of ubiquitin-specific protease 28 (AID 1645866). The note with it: purified USP28, ubiquitin-rhodamine fluorescence, 30 min.

Calls of active or inactive are those of the source.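 Rule for the calls: active = in confirmatory dose-response testing, peak deubiquitinase inhibition of 30% or more; inactive = the rest.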

This passage reports IC50 results from PubChem BioAssay AID1645866 (Buhrlage Lab, Dana-Farber Cancer Institute and Novartis …, 2021).

Usually IC50 stands for the concentration at which inhibition is half-maximal.

Chain of Ubiquitin carboxyl-terminal hydrolase 28 (Homo sapiens) (Q96RU2 whole entry, looked up): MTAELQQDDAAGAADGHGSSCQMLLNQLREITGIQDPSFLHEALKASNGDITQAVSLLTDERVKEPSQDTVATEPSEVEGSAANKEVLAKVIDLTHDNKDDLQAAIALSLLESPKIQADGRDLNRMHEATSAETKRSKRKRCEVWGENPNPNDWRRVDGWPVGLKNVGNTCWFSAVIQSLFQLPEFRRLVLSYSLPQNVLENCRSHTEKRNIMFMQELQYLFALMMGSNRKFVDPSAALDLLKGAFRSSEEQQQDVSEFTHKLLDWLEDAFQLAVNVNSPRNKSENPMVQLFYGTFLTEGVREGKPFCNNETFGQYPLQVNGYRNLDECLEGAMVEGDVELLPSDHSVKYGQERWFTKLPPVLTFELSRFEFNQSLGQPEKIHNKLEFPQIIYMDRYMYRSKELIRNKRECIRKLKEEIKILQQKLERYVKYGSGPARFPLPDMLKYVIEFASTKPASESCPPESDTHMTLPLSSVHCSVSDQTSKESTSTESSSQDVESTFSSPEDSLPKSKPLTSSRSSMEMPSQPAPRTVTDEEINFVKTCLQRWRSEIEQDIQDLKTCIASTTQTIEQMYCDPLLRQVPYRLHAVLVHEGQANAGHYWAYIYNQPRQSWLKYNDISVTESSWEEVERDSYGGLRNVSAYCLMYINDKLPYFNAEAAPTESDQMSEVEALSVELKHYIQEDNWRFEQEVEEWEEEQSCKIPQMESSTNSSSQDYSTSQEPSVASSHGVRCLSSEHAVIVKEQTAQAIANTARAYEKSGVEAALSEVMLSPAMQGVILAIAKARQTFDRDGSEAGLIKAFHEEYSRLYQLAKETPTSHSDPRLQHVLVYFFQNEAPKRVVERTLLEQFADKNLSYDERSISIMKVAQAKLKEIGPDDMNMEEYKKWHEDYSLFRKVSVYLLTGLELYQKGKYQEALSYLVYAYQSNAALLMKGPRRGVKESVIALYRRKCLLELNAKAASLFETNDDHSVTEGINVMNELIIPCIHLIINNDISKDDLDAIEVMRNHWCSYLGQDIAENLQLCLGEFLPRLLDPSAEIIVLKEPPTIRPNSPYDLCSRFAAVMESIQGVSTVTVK

Consider `CCCCCC(=O)N1c2ccccc2NC2=C(C(=O)CC(c3ccc(C(C)(C)C)cc3)C2)C1c1ccncc1` (stereo not drawn), for which the IC50 was 11.4 µM.

As to `COc1ccc(C2CC(=O)Nc3ccc4ccccc4c32)c(OC)c1OC` (stereo not drawn), the concentration for half-maximal inhibition (IC50) was 47.8 µM. With `O=C(Nc1ccc(Br)cn1)c1nc2ccccc2nc1N1CCCCC1`, the IC50 is > 50 µM (inactive). On to `O=c1c2c(ccn1Cc1cc(F)ccc1F)ccn2Cc1cccnc1`, for which the half-maximal inhibitory concentration (IC50) is 7.21 µM. Turning to `O=C(Nc1ccc2ccccc2n1)c1ccc(Cl)cc1`, the half-maximal inhibitory concentration (IC50) is 6.26 µM. Under `O=C(Nc1ccc(F)cc1F)NC1CCN(c2ccccc2)C1=O` (stereo not drawn) stands 21.7 µM; under `CN(C)CCc1cc2c(c3c1ccc1ccccc13)OCO2`, 4.59 µM; under `Cc1ccc(Cn2cc(-c3noc(-c4ccc[nH]4)n3)nn2)cc1`, 16.2 µM. Take `CCOc1ccc2c(c1)c(=O)c(C(=O)c1ccc(C)cc1)cn2CC(=O)Nc1ccc(OC)c(OC)c1`: the half-maximal inhibitory concentration (IC50) was 0.686 µM. For `O=C(/C=C/c1ccccc1)N1CCN(C2=NS(=O)(=O)c3ccccc32)CC1`, the IC50 was > 50 µM (inactive).

As for `c1ccc(CCN2CCc3nc4cccnc4cc3C2)nc1`, the IC50 was > 50 µM (inactive). In the case of `Cc1cc(C)nc(SCCn2c(N3CCC(Cc4ccccc4)CC3)nc3c2c(=O)n(C)c(=O)n3C)n1`, the IC50 is > 50 µM (inactive).

Take `CCOc1ccc(NC(=O)c2cc(-c3ccccc3)c(N3CCOCC3)s2)cc1`: the IC50 was 14 µM. Take `COc1cc(C2SCC(=O)Nc3c2c(-c2ccccc2)nn3-c2ccccc2)cc(OC)c1OC` (stereo not drawn): the IC50 is 3.37 µM. As for `Cc1ccc(NC(=O)c2nnn(-c3ccccc3Br)c2C)cc1C`, the figure is 1.53 µM; as for `Cc1ccc2cccc(OCc3nnc(SCC(=O)c4ccc(Cl)cc4)n3C)c2n1`, 4.77 µM; as for `COC1C(O)=C2C(=O)O/C(C)=C/C=C/C=C/C=C/CC(c3ccccc3)NC(=O)/C=C/C=C/C=C\C=C\C2(C)C1O` (stereo not drawn), > 50 µM (inactive). For the compound `Cc1ccc(NC(=O)Cc2nnc3c(-c4nc(C5CC5)no4)cccn23)cc1`, the 50% inhibitory concentration (IC50) is 3.53 µM. As to `CCOc1ccc(CC(=O)Nc2ccc(-c3cn4cccnc4n3)cc2)cc1`, the IC50 is 14.6 µM. Turning to `CCOc1ccc(NC(=O)Cn2c(=O)n(CCC(=O)NCc3ccco3)c(=O)c3ccccc32)cc1`, the IC50 was 4.44 µM. `O=S(=O)(Nc1ccc2oc(-c3ccncc3)nc2c1)c1ccccc1`: the half-inhibitory concentration (IC50) is 40.8 µM. Consider `Cc1ccc(-n2c(-c3ccccc3)cn3c4c(=O)[nH]c(=O)n(C)c4nc23)cc1Cl`, for which the concentration for half-maximal inhibition (IC50) was 0.305 µM. As for `Cc1nc2sc(C(=O)Nc3ccccc3Br)c(N)c2c(C)c1C`, the IC50 was 2.01 µM. Turning to `CCOc1ccccc1NC(=O)COc1cc(OC)ccc1C(=O)c1ccccc1`, the IC50 was 4.45 µM.

For the compound `O=C(NC1CCN(Cc2ccccc2)CC1)c1[nH]nc2c1CCc1ccccc1-2`, the half-maximal inhibitory concentration (IC50) was 6.27 µM. In the case of `COCCN(C1CCN(CCc2ccc(Cl)cc2)CC1)S(=O)(=O)c1cccc2cccnc12`, the IC50 was > 50 µM (inactive). As for `O=C1c2ccccc2NC2(C(=O)Nc3ccc(Br)cc32)N1c1ccccc1` (stereo not drawn), the half-inhibitory concentration (IC50) was 3.31 µM.

In the case of `Cc1cc(N2CCN(c3ncccn3)CC2)nc2ccc(NC(=O)/C=C/c3ccccc3Cl)cc12`, the IC50 is 7.79 µM. As to `CN[C@H]1CC2(CCN(C(=O)CCCn3cccn3)CC2)OC[C@]1(C)O`, the IC50 is > 50 µM (inactive). With `COc1ccc(OC)c(NC(=O)C2Oc3ccccc3NC2=O)c1` (stereo not drawn), the IC50 was 8.5 µM. Consider `NS(=O)(=O)c1cc(C(=O)OCC(=O)NC2CCCc3ccccc32)ccc1Cl` (stereo not drawn), for which the half-maximal inhibitory concentration (IC50) is 31.2 µM. Consider `O=C(COC(=O)c1cc2c(s1)CCC2)c1ccc2[nH]c(=O)[nH]c2c1`, for which the IC50 is 6.48 µM. As for `COc1ccc(-n2nnc3c(SCC(=O)Nc4cc(C)on4)ncnc32)cc1`, the figure is > 50 µM (inactive); as for `C/C=C\C1=CC(=O)[C@]23C[C@H]2[C@]2(C)CO[C@@]1(O)[C@@]3(O)O2`, > 50 µM (inactive); as for `O=C(Cc1ccc(Cl)c(Cl)c1)OCC(=O)c1c[nH]c2ccccc12`, > 50 µM (inactive). Regarding `COc1ccc(OC)c(NC(=O)CSc2nc(C)nc3c2oc2ccccc23)c1`, the 50% inhibitory concentration (IC50) is 8.65 µM. For the compound `O=C(Nc1ccc(F)cc1F)NC1Cc2ccccc2C1`, the IC50 was 44.1 µM. As for `Cc1ccc(N=Cc2sc(O)c3ccccc23)c(C)c1`, the figure is > 50 µM (inactive); as for `O=C(Cn1cccc1-c1nc(-c2ccccc2)cs1)N1CCOCC1`, 18.3 µM; as for `Nc1c(-c2ccc(Cl)cc2)cnc2cc(-c3ccc(Cl)c(Cl)c3)nn12`, 3.28 µM. For the compound `COc1ccc(NC(=O)CSc2oc(-c3ccc(C)cc3)nc2S(=O)(=O)c2ccc(Br)cc2)c(OC)c1`, the IC50 is > 50 µM (inactive).

For `O=C(Nc1ccc2c(c1)OCCO2)c1cc(CN2CCOCC2)on1`, the concentration for half-maximal inhibition (IC50) was 11.9 µM. On to `CCn1cc2c(n1)c(=O)n(Cc1ccc(C)cc1)c(=O)n2CC(=O)Nc1ccc(F)cc1`, for which the IC50 was 11 µM. For the compound `COc1ccc2nc(SCC(=O)Nc3ccc(NC(C)=O)cc3)c(C)cc2c1`, the IC50 is 9.45 µM.

Take `c1csc(CCN2CCc3nc4cccnc4cc3C2)c1`: the IC50 was > 50 µM (inactive). Under `CCOc1ccc2c(c1)c(=O)c(C(=O)c1ccccc1)cn2CC(=O)Nc1ccc2c(c1)OCCO2` stands 24 µM.

In the case of `Cn1c(=O)c(C(=O)CN2CCN(c3ccc(O)cc3)CC2)c(N)n(Cc2ccccc2)c1=O`, the IC50 is 49.4 µM. With `COc1ccc(CC(=O)NCc2ccc3[nH]c(C)cc3c2)cc1`, the IC50 was > 50 µM (inactive). Take `Cc1[nH]nc(NC(=O)C2COc3ccccc3O2)c1-c1ccccc1` (stereo not drawn): the 50% inhibitory concentration (IC50) was 15.1 µM.

Regarding `CC1CS(=O)(=O)N(c2ccc(C(=O)Nc3ccc4c(c3)OCCO4)cc2)C1=O` (stereo not drawn), the IC50 was 7.25 µM.

In the case of `COc1ccc(OC)c(-n2c(SCC(=O)N3CCc4ccccc43)nnc2-c2cccc(S(=O)(=O)N(C)C)c2)c1`, the IC50 is 8.44 µM. Turning to `COc1cccc(-c2cc(=O)[nH]c(Nc3nc(C)c4ccccc4n3)n2)c1`, the IC50 is 25.9 µM. With `COc1ccc(-c2cc(-c3nnc(CSc4nc5ccccc5n4C)o3)c3ccccc3n2)cc1OC`, the IC50 was > 50 µM (inactive). For the compound `COc1cccc2cc(C(=O)Nc3nc(-c4ccncc4)cs3)oc12`, the half-maximal inhibitory concentration (IC50) is 0.647 µM. In the case of `COc1ccccc1-c1ccc(CN2[C@@H](c3ccccc3)C[C@@H]3NC(=O)CCC[C@H]32)cc1`, the IC50 is > 50 µM (inactive). Under `O=C(Cn1cnc2ccccc21)Nc1ccc2c(c1)CCC2` stands 28.7 µM.

For `CCc1ccc(-c2nc(SCC(=O)Nc3ccc4[nH]c(=O)[nH]c4c3)n[nH]2)cc1`, the IC50 is 23.5 µM. As for `Cc1cnc2nc3c(cc2c1)CN(S(=O)(=O)c1cc(F)ccc1C)CC3`, the IC50 was > 50 µM (inactive). `Cc1cc(O)c2c3c(c(O)cc2c1)C(=O)c1c(O)cccc1C3=O`: the IC50 was 1.89 µM. For the compound `CC(=O)c1cc2c(=O)c3c(C(=O)O)c(O)c(O)cc3oc2c(C(C)=O)c1-c1coc2cc(O)c(O)c(C(=O)O)c2c1=O`, the IC50 was 1.77 µM. Under `CC1CCc2c(sc3ncnc(NC4CCN(CC(N)=O)CC4)c23)C1` (stereo not drawn) stands > 50 µM (inactive); under `Cc1ccc(-c2c(C(=O)Nc3ccc(S(N)(=O)=O)cc3)oc(=O)c3ccccc23)cc1`, 30.5 µM. On to `O=C(CSc1ccc(-c2cccc([N+](=O)[O-])c2)nn1)Nc1cccc(F)c1`, for which the IC50 was 2.23 µM. Regarding `CC1=CN2C(=N)/C(=C/c3cn(Cc4ccc(Cl)cc4)c4ccccc34)C(=O)N=C2S1`, the IC50 was > 50 µM (inactive). As for `CC(=O)c1cccc(NC(=O)c2ccc(CN(c3ccc(C)c(C)c3)S(C)(=O)=O)cc2)c1`, the figure is 2.2 µM.

In the case of `COc1ccc(-c2cc3c(=O)n(CC(=O)Nc4ccccc4F)ccn3n2)cc1OC`, the IC50 was 33 µM. Regarding `Cc1cc(NC(=O)c2nnn(-c3ccccc3Cl)c2C)no1`, the concentration for half-maximal inhibition (IC50) was 1.49 µM. `Cc1ccc(C)c(S(=O)(=O)N2CCN(c3ccc4nnc(-c5ccco5)n4n3)CC2)c1`: the IC50 is > 50 µM (inactive). Consider `COc1ccc(/C=C/C(=O)Nc2ccc3c(c2)OCCO3)cc1Br`, for which the IC50 is 1.34 µM. For the compound `O=c1c2cnc3nc(-c4cccnc4)nn3c2ccn1CCc1ccccc1`, the IC50 is > 50 µM (inactive).

`Cc1ccn(-c2ccc(NC(=O)C3CCCCC3)cc2)n1`: the IC50 was 22.6 µM. Under `Cc1cccc(C(=O)NCc2nc3ccccc3n2Cc2ccccc2C)c1` stands > 50 µM (inactive); under `Fc1ccccc1N1CCN(c2ncc3c(n2)CCN(Cc2ccccn2)C3)CC1`, 31 µM; under `CC(C)Cc1nc2sc3c(NCc4ccccc4)ncnc3c2c2c1COC(C)(C)C2`, 6.15 µM. Consider `COc1ccc2[nH]cc(S(=O)(=O)c3ccc(C)c(F)c3)c(=O)c2c1`, for which the IC50 is 24.1 µM. Regarding `O=c1[nH]c(C2CCN(S(=O)(=O)c3ccc(S(=O)(=O)NC4CCCCC4)cc3)CC2)nc2c1nnn2Cc1c(Cl)cccc1Cl`, the half-inhibitory concentration (IC50) was 8.62 µM. As for `CCOc1ccc(NC(=O)c2nc3c(=O)[nH]c4cc(C)ccc4n3n2)cc1`, the figure is 47.5 µM; as for `COc1ccc(OC)c2c(C)cc(N3CCN(S(=O)(=O)c4ccc5c(c4)CCCN5S(C)(=O)=O)CC3)nc12`, 17.9 µM; as for `COc1cccc(NC(=O)Nc2nccn(-c3ccc(F)cc3)c2=O)c1`, 18.3 µM. With `CC(Sc1n[nH]c2nc3ccccc3n12)C(=O)Nc1ccc2c(c1)OCCO2` (stereo not drawn), the IC50 was 37.5 µM.

Consider `CS(=O)(=O)N1CCCc2cc(C(=O)Nc3ccc(Oc4ccccc4)cc3)ccc21`, for which the half-inhibitory concentration (IC50) is 12.5 µM. As for `O=S1(=O)CCN(CC2CCCO2)c2c(Oc3ccccc3)nc(F)c(Cl)c21` (stereo not drawn), the figure is > 50 µM (inactive); as for `O=C(CC1C(=O)N(Cc2cccnc2)c2nc3ccccc3n21)Nc1cccc2ccccc12` (stereo not drawn), > 50 µM (inactive); as for `Cc1ccc(-n2c(=O)[nH]c3c(C(N)=O)nc(-c4cccnc4)nc32)cc1`, 6.87 µM. As for `COc1ccc(-c2ccnc(-c3ccc(OCc4cccc(F)c4)cc3)n2)cc1`, the figure is > 50 µM (inactive); as for `COc1ccc(NC(=O)C2CC(=O)Nc3cc(-c4ccccc4)nn32)cc1` (stereo not drawn), 21.7 µM; as for `CC(=O)Nc1ccc(NC(=O)c2cc(-c3cc(C)cc(C)c3O)n[nH]2)cc1`, 10.8 µM. For the compound `COc1cc(OC)cc(-n2c(=O)c3sccc3n(CC(=O)Nc3ccc(C)cc3)c2=O)c1`, the IC50 is 6.98 µM.
